Source: ChEMBL document CHEMBL4261607 (Eur J Med Chem, 2018)

Tests used:
[1] = Cytotoxicity against MDCK cells assessed as reduction in cell viability after 24 hrs by MTT assay; format: cell-based, Canis lupus familiaris; settings: dog
[2] = Cytotoxicity in yeast assessed as reduction in cell proliferation; format: organism-based; settings: saccharomyces cerevisiae, yeast cells
[3] = target: Matrix protein 2 (Influenza A virus (A/Udorn/307/1972(H3N2)), UniProt P0DOF8)
[4] = tested on: Influenza A virus; assay: Antiviral activity against Influenza A virus H5N1 infected in MDCK cells after 2 to 3 days by crystal violet staining-based plaque reduction assay; format: functional, organism-based

Sequence of Matrix protein 2 (Influenza A virus (A/Udorn/307/1972(H3N2)), UniProt P0DOF8) (P0DOF8 whole entry): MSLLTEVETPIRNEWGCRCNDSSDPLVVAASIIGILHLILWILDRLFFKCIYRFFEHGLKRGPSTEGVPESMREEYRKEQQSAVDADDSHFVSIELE

Structure (SMILES) | CC50 at 24 h [1] [µM] | CC50 [2] [µM] | EC50 [3] | EC50 [4] [µM]
COc1ccc(S(=O)(=O)N(CCC#N)Cc2cccs2)cc1 | > 198 | > 199 | – | –
N#CCCN(Cc1cccs1)S(=O)(=O)c1ccc(Br)cc1 | > 173 | > 174 | – | –
Cc1ccc(S(=O)(=O)N(CCC#N)Cc2ccco2)cc1 | > 219 | > 220 | – | –
N#CCCN(Cc1cccs1)S(=O)(=O)c1cccc(F)c1 | > 206 | > 206 | – | –
N#CCCN(Cc1cccs1)S(=O)(=O)c1ccc(C(F)(F)F)cc1 | > 178 | > 179 | – | –
N#CCCN(Cc1ccco1)S(=O)(=O)c1ccc(C(F)(F)F)cc1 | > 186 | > 187 | – | –
N#CCCN(Cc1cccs1)S(=O)(=O)c1ccc(N)cc1 | > 208 | > 179 | – | –
Cc1ccc(S(=O)(=O)N(CCC#N)Cc2cccs2)cc1 | 127 | > 209 | – | –
NC12CC3CC(CC(C3)C1)C2 [AMANTADINE] | > 441 | > 443 | – | –
CCCN(Cc1cccs1)S(=O)(=O)c1ccc(Br)cc1 | > 178 | > 179 | – | –
O=C(O)CCN(Cc1cccs1)S(=O)(=O)c1ccc(Br)cc1 | > 165 | > 166 | – | –
N#CCCN(Cc1ccc[nH]1)S(=O)(=O)c1ccc(Br)cc1 | > 181 | > 182 | – | –
COc1ccc(S(=O)(=O)N(CCC#N)Cc2ccco2)cc1 | > 208 | > 209 | – | –
N#CCCN(Cc1ccco1)S(=O)(=O)c1ccc(C#N)cc1 | > 212 | > 212 | – | –
CCCN(CCC#N)S(=O)(=O)c1ccc(Br)cc1 | 116 | > 202 | – | –
N#CCCN(Cc1cccs1)S(=O)(=O)c1ccc(F)cc1 | > 206 | > 206 | – | –
Cc1cccc(S(=O)(=O)N(CCC#N)Cc2ccco2)c1 | > 219 | > 220 | – | –
CCOC(=O)CCN(Cc1cccs1)S(=O)(=O)c1ccc(Br)cc1 | > 154 | > 155 | – | –
N#CCCN(Cc1cccs1)S(=O)(=O)c1ccccc1F | > 206 | > 206 | – | –
N#CCCN(Cc1cccs1)S(=O)(=O)c1ccc(C#N)cc1 | > 201 | > 202 | – | –
CCOC(=O)C1=C[C@@H](OC(CC)CC)[C@H](NC(C)=O)[C@@H](N)C1 [OSELTAMIVIR] | – | > 214 | Not Active | –
N#CCCN(Cc1ccco1)S(=O)(=O)c1ccc(Cl)cc1 | > 205 | > 206 | – | –
O=S(=O)(c1ccc(Br)cc1)N(Cc1cccs1)Cc1cccs1 | 81 | > 156 | – | –
N#CCCN(Cc1ccco1)S(=O)(=O)c1ccc(Br)cc1 | > 181 | > 182 | – | –
Cc1cc(C(=O)NCCSCc2ccc([N+](=O)[O-])cc2)c(C)o1 | – | – | – | 1.25
N#CCCN(Cc1ccco1)S(=O)(=O)c1ccc(F)cc1 | 216 to 227 | 216 to 217 | – | –
N#CCCN(Cc1ccccc1)S(=O)(=O)c1ccc(F)cc1 | > 210 | > 210 | – | –
N#CCCN(Cc1cccs1)S(=O)(=O)c1ccc(Cl)cc1 | > 196 | > 197 | – | –
CC(=O)c1ccc(S(=O)(=O)N(CCC#N)Cc2cccs2)cc1 | > 191 | > 192 | – | –
N#CCCN(Cc1cccs1)S(=O)(=O)c1ccc([N+](=O)[O-])cc1 | > 190 | > 191 | – | –
